Test results reported in ChEMBL document CHEMBL1130934, “Enantioselective synthesis and pharmacology of 11-hydroxy-(1'S,2'R)-dimethylheptyl-delta 8-THC” (Bioorg Med Chem Lett, 1998).

Experiments:
Mus musculus [1] = species on record: Mus musculus; experiment: Compound was evaluated in mouse model for cannabimimetic activity, expressed as as effective dose for antinociception (TF); type: functional
Mus musculus [2] = species on record: Mus musculus; experiment: Compound was evaluated in mouse model for cannabimimetic activity, expressed as effective dose for spontaneous activity(SA); type: functional
Mus musculus [3] = species on record: Mus musculus; experiment: Compound was evaluated in mouse model for cannabimimetic activity, expressed as as effective dose for hypothermia (rectal temperature, RT); type: functional
Cannabinoid receptor 1 [4] = molecular target: T1, Cannabinoid receptor 1 (Rattus norvegicus, UniProt P20272); experiment: Binding affinity for the Cannabinoid receptor using [3H]CP-55940 as radioligand
Cannabinoid receptor 1 [5] = molecular target: T1, Cannabinoid receptor 1; experiment: Binding affinity for the cannabinoid brain receptor (CB1) using [3H]CP-55940

T1 sequence (P20272 whole entry): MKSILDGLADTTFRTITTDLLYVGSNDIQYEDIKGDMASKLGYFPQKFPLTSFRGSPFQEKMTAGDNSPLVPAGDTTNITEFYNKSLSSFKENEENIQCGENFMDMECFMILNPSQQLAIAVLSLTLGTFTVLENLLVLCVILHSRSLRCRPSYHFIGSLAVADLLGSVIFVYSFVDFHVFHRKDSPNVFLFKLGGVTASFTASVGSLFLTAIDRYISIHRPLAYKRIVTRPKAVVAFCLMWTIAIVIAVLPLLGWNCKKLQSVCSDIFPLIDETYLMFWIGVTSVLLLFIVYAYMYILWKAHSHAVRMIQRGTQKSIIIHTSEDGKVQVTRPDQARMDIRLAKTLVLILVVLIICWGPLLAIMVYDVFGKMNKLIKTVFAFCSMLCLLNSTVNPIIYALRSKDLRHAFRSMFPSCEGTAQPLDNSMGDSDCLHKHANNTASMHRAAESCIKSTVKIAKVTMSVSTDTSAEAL

CCCCCCC(C)(C)c1cc(O)c2c(c1)OC(C)(C)[C@@H]1CC=C(CO)C[C@@H]21
ED50 (Mus musculus [1]): 0.02 µmol/kg
ED50 (Mus musculus [2]): 0.01 µmol/kg
ED50 (Mus musculus [3]): 0.05 µmol/kg
Ki (Cannabinoid receptor 1 [4]): 0.73 nM

CCCCC[C@@H](C)[C@H](C)c1cc(O)c2c(c1)OC(C)(C)[C@@H]1CC=C(C)C[C@@H]21
ED50 (Mus musculus [1]): 0.03 µmol/kg
ED50 (Mus musculus [2]): 0.03 µmol/kg
ED50 (Mus musculus [3]): 0.07 µmol/kg
Ki (Cannabinoid receptor 1 [5]): 0.46 nM

CCCCCCC(C)(C)c1cc(O)c2c(c1)OC(C)(C)[C@@H]1CC=C(C)C[C@@H]21
ED50 (Mus musculus [1]): 0.14 µmol/kg
ED50 (Mus musculus [2]): 0.27 µmol/kg
ED50 (Mus musculus [3]): 0.15 µmol/kg
Ki (Cannabinoid receptor 1 [5]): 0.77 nM

CCCCC[C@@H](C)[C@H](C)c1cc(O)c2c(c1)OC(C)(C)[C@@H]1CC=C(CO)C[C@@H]21
ED50 (Mus musculus [1]): 0.03 µmol/kg
ED50 (Mus musculus [2]): 0.01 µmol/kg
ED50 (Mus musculus [3]): 0.02 µmol/kg
Ki (Cannabinoid receptor 1 [5]): 0.49 nM
